Experimental data as given in ChEMBL document CHEMBL5331067, “Disubstituted pyrimidine-5-carboxamide derivatives as novel HIV-1 NNRTIs: Crystallographic overlay-based molecular design, synthesis, and biological evaluation” (Eur J Med Chem, 2023).

Assays:
[1] = test system: Human immunodeficiency virus 1; assay: Antiviral activity against NNRTI-resistant HIV-1 harboring F227L/V106A double mutant infected in human MT4 cells assessed as virus-induced cytopathicity incubated for 5 days by MTT assay; type: functional, organism-based; settings: Human immunodeficiency virus 1, MT4, 120 h
[2] = target: Human immunodeficiency virus type 1 reverse transcriptase (Human immunodeficiency virus 1, UniProt Q72547); assay: Inhibition of wild type HIV-1 reverse transcriptase assessed as reduction of biotin-dUTP incorporation into […] using ABTS as substrate incubated for 1 hrs by ELISA analysis
[3] = test system: Human immunodeficiency virus 1; assay: Antiviral activity against HIV-1 RES056 infected in human MT4 cells assessed as reduction in virus induced cytopathic effect incubated for 5 days by MTT assay; type: functional, organism-based; settings: Human immunodeficiency virus 1, RES056, MT4, 120 h
[4] = Fold resistance, ratio of EC50 for antiviral activity against NNRTI-resistant HIV-1 harboring L100I mutant infected in human MT4 cells assessed as virus-induced cytopathicity to EC50 for antiviral activity against HIV-1 IIIB infected in human MT4 cells assessed as reduction in virus induced cytopathic effect; type: functional
[5] = Selectivity index, ratio of CC50 for cytotoxicity against human MT4 cells assessed as reduction in cell viability to EC50 for antiviral activity against NNRTI-resistant HIV-1 harboring K103N mutant infected in human MT4 cells; type: toxicity, cell-based; settings: read-out: Ratio CC50/EC50
[6] = test system: Human immunodeficiency virus 1; assay: Antiviral activity against NNRTI-resistant HIV-1 harboring E138K mutant infected in human MT4 cells assessed as virus-induced cytopathicity incubated for 5 days by MTT assay; type: functional, organism-based; settings: Human immunodeficiency virus 1, MT4, 120 h
[7] = Fold resistance, ratio of EC50 for antiviral activity against NNRTI-resistant HIV-1 harboring F227L/V106A double mutant infected in human MT4 cells assessed as virus-induced cytopathicity to EC50 for antiviral activity against HIV-1 IIIB infected in human MT4 cells assessed as reduction in virus induced cytopathic effect; type: functional
[8] = Fold resistance, ratio of EC50 for antiviral activity against NNRTI-resistant HIV-1 harboring Y188L mutant infected in human MT4 cells assessed as virus-induced cytopathicity to EC50 for antiviral activity against HIV-1 IIIB infected in human MT4 cells assessed as reduction in virus induced cytopathic effect; type: functional
[9] = test system: Human immunodeficiency virus 1; assay: Antiviral activity against HIV-1 IIIB infected in human MT4 cells assessed as reduction in virus induced cytopathic effect incubated for 5 days by MTT assay; type: functional, organism-based; settings: Human immunodeficiency virus 1, IIIB, MT4, 120 h
[10] = test system: Human immunodeficiency virus 1; assay: Antiviral activity against NNRTI-resistant HIV-1 harboring L100I mutant infected in human MT4 cells assessed as virus-induced cytopathicity incubated for 5 days by MTT assay; type: functional, organism-based; settings: Human immunodeficiency virus 1, MT4, 120 h
[11] = Selectivity index, ratio of CC50 for cytotoxicity against human MT4 cells assessed as reduction in cell viability to EC50 for antiviral activity against NNRTI-resistant HIV-1 harboring E138K mutant infected in human MT4 cells; type: toxicity, cell-based; settings: read-out: Ratio CC50/EC50
[12] = Selectivity index, ratio of CC50 for cytotoxicity against human MT4 cells assessed as reduction in cell viability to EC50 for antiviral activity against NNRTI-resistant HIV-1 harboring Y188L mutant infected in human MT4 cells; type: toxicity, cell-based; settings: read-out: Ratio CC50/EC50
[13] = test system: Human immunodeficiency virus 1; assay: Antiviral activity against NNRTI-resistant HIV-1 harboring K103N mutant infected in human MT4 cells assessed as virus-induced cytopathicity incubated for 5 days by MTT assay; type: functional, organism-based; settings: Human immunodeficiency virus 1, MT4, 120 h
[14] = Fold resistance, ratio of EC50 for antiviral activity against NNRTI-resistant HIV-1 harboring E138K mutant infected in human MT4 cells assessed as virus-induced cytopathicity to EC50 for antiviral activity against HIV-1 IIIB infected in human MT4 cells assessed as reduction in virus induced cytopathic effect; type: functional
[15] = test system: Human immunodeficiency virus 1; assay: Antiviral activity against NNRTI-resistant HIV-1 harboring Y181C mutant infected in human MT4 cells assessed as virus-induced cytopathicity incubated for 5 days by MTT assay; type: functional, organism-based; settings: Human immunodeficiency virus 1, MT4, 120 h
[16] = Fold resistance, ratio of EC50 for antiviral activity against NNRTI-resistant HIV-1 harboring F227L/V106A double mutant infected in human MT4 cells assessed as virus-induced cytopathicity to EC50 for antiviral activity against HIV-1 RES056 infected in human MT4 cells assessed as reduction in virus induced cytopathic effect; type: functional
[17] = Selectivity index, ratio of CC50 for cytotoxicity against human MT4 cells assessed as reduction in cell viability to EC50 for antiviral activity against NNRTI-resistant HIV-1 harboring Y181C mutant infected in human MT4 cells; type: toxicity, cell-based; settings: read-out: Ratio CC50/EC50
[18] = Selectivity index, ratio of CC50 for cytotoxicity against human MT4 cells assessed as reduction in cell viability to EC50 for antiviral activity against HIV-1 IIIB infected in human MT4 cells assessed as reduction in virus induced cytopathic effect; type: toxicity, cell-based; settings: read-out: Ratio CC50/EC50
[19] = Selectivity index, ratio of CC50 for cytotoxicity against human MT4 cells assessed as reduction in cell viability to EC50 for antiviral activity against NNRTI-resistant HIV-1 harboring F227L/V106A double mutant infected in human MT4 cells; type: toxicity, cell-based; settings: read-out: Ratio CC50/EC50
[20] = Selectivity index, ratio of CC50 for cytotoxicity against human MT4 cells assessed as reduction in cell viability to EC50 for antiviral activity against NNRTI-resistant HIV-1 harboring L100I mutant infected in human MT4 cells; type: toxicity, cell-based; settings: read-out: Ratio CC50/EC50
[21] = Cytotoxicity against human MT4 cells assessed as cell growth inhibition incubated for 5 days by MTT assay; type: toxicity, cell-based; settings: time 5 day
[22] = Fold resistance, ratio of EC50 for antiviral activity against NNRTI-resistant HIV-1 harboring Y181C mutant infected in human MT4 cells assessed as virus-induced cytopathicity to EC50 for antiviral activity against HIV-1 IIIB infected in human MT4 cells assessed as reduction in virus induced cytopathic effect; type: functional
[23] = test system: Human immunodeficiency virus 1; assay: Antiviral activity against NNRTI-resistant HIV-1 harboring Y188L mutant infected in human MT4 cells assessed as virus-induced cytopathicity incubated for 5 days by MTT assay; type: functional, organism-based; settings: Human immunodeficiency virus 1, MT4, 120 h
[24] = Fold resistance, ratio of EC50 for antiviral activity against NNRTI-resistant HIV-1 harboring K103N mutant infected in human MT4 cells assessed as virus-induced cytopathicity to EC50 for antiviral activity against HIV-1 IIIB infected in human MT4 cells assessed as reduction in virus induced cytopathic effect; type: functional
[25] = Selectivity index, ratio of CC50 for cytotoxicity against human MT4 cells assessed as reduction in cell viability to EC50 for antiviral activity against HIV-1 RES056 infected in human MT4 cells assessed as reduction in virus induced cytopathic effect; type: toxicity, cell-based; settings: read-out: Ratio CC50/EC50

Row | SMILES | EC50 [1] [nM] | IC50 [2] [nM] | EC50 [3] [µM] | Ratio EC50 [4] | selectivity ratio [5] | EC50 [6] [nM] | Ratio EC50 [7] | Ratio EC50 [8] | EC50 [9] [nM] | EC50 [10] [nM] | selectivity ratio [11] | selectivity ratio [12] | EC50 [13] [nM] | Ratio EC50 [14] | EC50 [15] [nM] | Ratio EC50 [16] | selectivity ratio [17] | selectivity ratio [18] | selectivity ratio [19] | selectivity ratio [20] | further results
1 | Cc1cc(C#N)cc(C)c1Oc1nc(NC2CCN(Cc3ccc(S(C)(=O)=O)cc3)CC2)ncc1C(N)=O | 327 | 122 | 3.45 | 1.9 | > 4460 | 149 | 57.4 | 12.1 | 6 | 11 | > 1560 | > 3400 | 5 | 26.2 | 34 | 605.5 | > 6790 | > 41100 | > 716 | > 221 | CC50 at 120 h [21]: > 234 µM; Ratio EC50 [22]: 6; EC50 [23]: 69 nM; Ratio EC50 [24]: 0.9; selectivity ratio [25]: > 68
2 | Cc1cc(C#N)cc(C)c1Oc1nc(NC2CCN(Cc3ccc(C(N)=O)cc3)CC2)ncc1C(N)=O | 4520 | 158 | 17.8 | 1.6 | > 5580 | 380 | 100.3 | 17.1 | 45 | 73 | > 659 | > 324 | 45 | 8.4 | 286 | 394.1 | > 876 | > 5560 | > 55 | > 344 | CC50 at 120 h [21]: > 250 µM; Ratio EC50 [22]: 6.3; EC50 [23]: 771 nM; Ratio EC50 [24]: 1; selectivity ratio [25]: > 14
